Counter-ions that a name gives are not always drawn.
target: T1, activated ROCK II (Rattus norvegicus, UniProt Q62868); test: Test for Evaluation of Inhibiting Activity to Rho Kinase; assay type: biochemical; settings: S6 Kinase Substrate Peptide, [γ-32P]ATP, 30° C. for 15 minutes, Ki=IC50/(1+S/Km)
T1 construct: purchased Upstate Biotechnology 14-338
Protocol: In order to find the utility of the present invention compound, a Rho kinase inhibiting activity of the present invention compound was evaluated. The details thereof will be illustrated under the item of “Pharmacological Test (Test for Evaluation of Rho Kinase Inhibiting Activity)” in the Examples which will be mentioned later. The evaluation of the Rho kinase inhibiting activity of the present invention compound was carried out in accordance with the methods mentioned in J. Biol. Chem., 274, 32418 (1999) by Kaibuchi, et al. and mentioned in the instruction manual for use attached to the commercially available activated ROCK II [Upstate Biotechnology, Catalog No. 14-338 (5 units/50 μl)].
A. Test for Evaluation of Inhibiting Activity to Rho Kinase
In order to test the usefulness of the compounds of the present invention as a Rho kinase inhibitor, inhibiting activities of the compounds of the present invention to Rho kinase were evaluated and investigated in accordance with the methods of Kaibuchi, et al. mentioned in J. Biol. Chem., 274, 32418, 1999 and also with the methods mentioned in the instruction manual for use attached to commercially available activated ROCK II [Upstate Biotechnology, Catalog No. 14-338, (5 unite/50 μl)]. With regard to the test compounds, the compounds 5-1 to 5-73 (except the compounds 5-2, 5-9, 5-18, 5-37 and 5-38) were used.
A buffer was prepared so as to make tris(hydroxymethyl)aminomethane (Tris) (pH 7.5), 50 mM, ethyleneglycol bis(β-aminoethyl ether)-N,N,N′,N′-tetraacetic acid (EGTA), 2 mM, ethylenediaminetetraacetic acid (EDTA), 1 mM, magnesium chloride (MgCl2) 5 mM, β-glycerol phosphate, 5 mM, and dithiothreitol (DTT), 2 mM, by mixing them.
A mixed liquid of a 10 mM ATP solution with a commercially available [γ-^32P]ATP solution [NEN, Code No. NEG-002A] was diluted with the buffer to prepare a 300 μM ATP [γ-^32P]ATP solution.
A Commercially Available Activated ROCK II [Upstate Biotechnology, Catalog No. 14-338, (5 Units/50 μl)] was diluted to a concentration of 1/100 with the buffer to prepare an activated ROCK II solution.
A S6 Kinase Substrate Peptide [Upstate Biotechnology, Catalog No. 12-124,] (2 mg) was dissolved in distilled water to prepare a 1 mM substrate solution.
A test compound was dissolved in 10% aqueous dimethyl sulfoxide solution.
1) The test compound solution is placed in a microtube.
2) The 300 μM ATP [γ-^32P]ATP solution is added to the microtube followed by cooling to 4° C.
3) After that, a permanently activated ROCK II solution, 1 mM substrate solution and buffer are added to each microtube in that order, and the whole is mixed and cooled again at 4° C.
4) The microtube is placed in an incubator (30° C.) and the mixture is subjected to reaction for 15 minutes.
5) After cooling to 4° C., a 250 mM phosphoric acid solution (5 μl) is added to each microtube to stop the reaction.
6) The reaction solution (30 μl) is taken out from each microtube and spotted on a filter paper (Whatman P81) so that the reaction product (phosphorylated substrate) is adsorbed to the filter paper.
7) The filter paper is transferred to a beaker in which a 75 mM phosphoric acid solution is placed and shaken for 5 minutes so that unreacted [γ-^32P]AfP is washed out. The washing operation as such is carried out four times.
8) After that, the filter paper is dipped in ethanol to dehydrate and energy amount (radioactivity) of the reaction product adsorbed to the filter paper is measured with a liquid scintillation counter.
The IC50 value was calculated by an XL-fit (IDBS).
The Ki value is calculated by the following formula. S is an ATP concentration contained in the reaction solution while Km is a Michaelis-Menten constant. Ki=IC50/(1+S/Km)

T1 sequence (Q62868 11-550 limits assumed): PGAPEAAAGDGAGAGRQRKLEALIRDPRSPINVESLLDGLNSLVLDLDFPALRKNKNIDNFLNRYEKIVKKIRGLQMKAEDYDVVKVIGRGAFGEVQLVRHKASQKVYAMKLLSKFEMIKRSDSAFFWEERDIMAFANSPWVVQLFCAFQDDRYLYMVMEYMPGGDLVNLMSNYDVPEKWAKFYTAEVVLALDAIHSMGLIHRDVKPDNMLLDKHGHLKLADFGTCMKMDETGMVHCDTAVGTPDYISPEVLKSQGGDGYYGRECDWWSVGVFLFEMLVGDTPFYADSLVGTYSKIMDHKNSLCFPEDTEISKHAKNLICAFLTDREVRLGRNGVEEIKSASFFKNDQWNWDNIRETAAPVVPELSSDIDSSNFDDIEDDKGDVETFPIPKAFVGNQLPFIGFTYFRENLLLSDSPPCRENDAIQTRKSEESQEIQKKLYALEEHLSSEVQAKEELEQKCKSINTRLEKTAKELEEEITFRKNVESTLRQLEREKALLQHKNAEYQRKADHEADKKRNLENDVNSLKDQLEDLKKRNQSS

SMILES	Ki [nM]
CC(C)Oc1c(-c2ccc(C(C)(C)N)cc2)ccc2[nH]ncc12 [Compound 5-40, 5-[4-(1-Amino-1-methylethyl)phenyl]-4-isopropoxy-1H-indazole dihydrochloride]	33
CC(C)(N)c1ccc(-c2ccc3[nH]ncc3c2N2CCOCC2)cc1 [Compound 5-43, 5-[4-(1-Amino-1-methylethyl)phenyl]-4-(morpholin-4-yl)-1H-indazole trihydrochloride]	211
COc1c(-c2ccc(C(C)(C)N)cn2)ccc2[nH]ncc12 [Compound 5-45, 5-[5-(1-Amino-1-methylethyl)pyridin-2-yl]-4-methoxy-1H-indazole trihydrochloride]	27
COc1c(-c2ccc(C3(N)CCCC3)cn2)ccc2[nH]ncc12 [Compound 5-46, 5-[5-(1-Aminocyclopentyl)pyridin-2-yl]-4-methoxy-1H-indazole trihydrochloride]	27
CCOc1c(-c2ccc(C(C)(C)N)cn2)ccc2[nH]ncc12 [Compound 5-47, 5-[5-(1-Amino-1-methylethyl)pyridin-2-yl]-4-ethoxy-1H-indazole trihydrochloride]	45
CC(C)(N)c1ccc(-c2ccc3[nH]ncc3c2O)cc1 [Compound 5-48, 5-[4-(1-Amino-1-methylethyl)phenyl]-4-hydroxy-1H-indazole dihydrochloride]	29
CC(C)Oc1c(-c2ccc(C(C)(C)N)cn2)ccc2[nH]ncc12 [Compound 5-50, 5-[5-(1-Amino-1-methylethyl)pyridin-2-yl]-4-isopropoxy-1H-indazole trihydrochloride]	84
CCC(N)(CC)c1ccc(-c2ccc3[nH]ncc3c2OC)nc1 [Compound 5-51, 5-[5-(1-Amino-1-ethylpropyl)pyridin-2-yl]-4-methoxy-1H-indazole trihydrochloride]	38
CC(C)(N)c1ccc(-c2ccc3[nH]ncc3c2OCC(F)(F)F)cc1 [Compound 5-54, 5-[4-(1-Amino-1-methylethyl)phenyl]-4-(2,2,2-tri-fluoroethoxy)-1H-indazole dihydrochloride]	31
CCCCOc1c(-c2ccc(C(C)(C)N)cc2)ccc2[nH]ncc12 [Compound 5-55, 5-[4-(1-Amino-1-methylethyl)phenyl]-4-n-butoxy-1H-indazole dihydrochloride]	13
CCCOc1c(-c2ccc(C(C)(C)N)cn2)ccc2[nH]ncc12 [Compound 5-58, 5-[5-(1-Amino-1-methylethyl)pyridin-2-yl]-4-n-propoxy-1H-indazole trihydrochloride]	39
CCOc1c(-c2ccc(C(N)(CC)CC)cn2)ccc2[nH]ncc12 [Compound 5-60, 5-[5-(1-Amino-1-ethylpropyl)pyridin-2-yl]-4-ethoxy-1H-indazole trihydrochloride]	35
CC(C)(N)c1ccc(-c2ccc3[nH]ncc3c2-c2ccncc2)cc1 [Compound 5-61, 5-[4-(1-Amino-1-methylethyl)phenyl]-4-(pyridin-4-yl)-1H-indazole trihydrochloride]	45
CC(C)(N)c1ccc(-c2ccc3[nH]ncc3c2-c2cccnc2)cc1 [Compound 5-62, 5-[4-(1-Amino-1-methylethyl)phenyl]-4-(pyridin-3-yl)-1H-indazole trihydrochloride]	126
CC(C)(N)c1ccc(-c2ccc3[nH]ncc3c2-c2ccccn2)cc1 [Compound 5-63, 5-[4-(1-Amino-1-methylethyl)phenyl]-4-(pyridin-2-yl)-1H-indazole trihydrochloride]	241
CC(C)(N)c1ccc(-c2ccc3[nH]ncc3c2-c2cn[nH]c2)nc1 [Compound 5-65, 5-[5-(1-Amino-1-methylethyl)pyridin-2-yl]-4-(pyrazol-4-yl)-1H-indazole tetrahydrochloride]	56
CC(C)(N)c1ccc(-c2ccc3[nH]ncc3c2O)nc1 [Compound 5-69, 5-[5-(1-Amino-1-methylethyl)pyridin-2-yl]-4-hydroxy-1H-indazole trihydrochloride]	55

Next, values leading:

Ki [nM]	SMILES
12	CC(C)(N)c1ccc(-c2ccc3[nH]ncc3c2-n2cccc2)cc1 [Compound 5-39, 5-[4-(1-Amino-1-methylethyl)phenyl]-4-(pyrrol-1-yl)-1H-indazole dihydrochloride]
14	CC(C)(N)c1ccc(-c2ccc3[nH]ncc3c2N2CCCCC2)cc1 [Compound 5-41, 5-[4-(1-Amino-1-methylethyl)phenyl]-4-(piperidin-1-yl)-1H-indazole trihydrochloride]
14	CC(C)(N)c1ccc(-c2ccc3[nH]ncc3c2N2CCCC2)cc1 [Compound 5-42, 5-[4-(1-Amino-1-methylethyl)phenyl]-4-(pyrrolidin-1-yl)-1H-indazole trihydrochloride]
13	COc1c(-c2ccc(C(C)(C)N)cc2)ccc2[nH]ncc12 [Compound 5-44, 5-[4-(1-Amino-1-methylethyl)phenyl]-4-methoxy-1H-indazole dihydrochloride]
17	CCOc1c(-c2ccc(C(C)(C)N)cc2)ccc2[nH]ncc12 [Compound 5-49, 5-[4-(1-Amino-1-methylethyl)phenyl]-4-ethoxy-1H-indazole dihydrochloride]
14	CCCOc1c(-c2ccc(C(C)(C)N)cc2)ccc2[nH]ncc12 [Compound 5-52, 5-[4-(1-Amino-1-methylethyl)phenyl]-4-n-propoxy-1H-indazole dihydrochloride]
3.6	CC(C)(N)c1ccc(-c2ccc3[nH]ncc3c2OC(F)F)cc1 [Compound 5-53, 5-[4-(1-Amino-1-methylethyl)phenyl]-4-difluoro-methoxy-1H-indazole dihydrochloride]
26	CC(C)(N)c1ccc(-c2ccc3[nH]ncc3c2OCCF)cc1 [Compound 5-56, 5-[4-(1-Amino-1-methylethyl)phenyl]-4-(2-fluoro-ethoxy)-1H-indazole dihydrochloride]
23	C=CCOc1c(-c2ccc(C(C)(C)N)cc2)ccc2[nH]ncc12 [Compound 5-57, 4-Allyloxy-5-[4-(1-amino-1-methylethyl)phenyl]-1H-indazole dihydrochloride]
6.9	CC(C)(N)c1ccc(-c2ccc3[nH]ncc3c2OC(F)F)nc1 [Compound 5-59, 5-[5-(1-Amino-1-methylethyl)pyridin-2-yl]-4-difluoromethoxy-1H-indazole trihydrochloride]
4.4	CC(C)(N)c1ccc(-c2ccc3[nH]ncc3c2-c2cn[nH]c2)cc1 [Compound 5-64, 5-[4-(1-Amino-1-methylethyl)phenyl]-4-(pyrazol-4-yl)-1H-indazole trihydrochloride]
2.6	CC(C)(N)c1ccc(-c2ccc3[nH]ncc3c2-c2cnco2)cc1 [Compound 5-66, 5-[4-(1-Amino-1-methylethyl)phenyl]-4-(oxazol-5-yl)-1H-indazole dihydrochloride]
11	CC(C)(N)c1ccc(-c2ccc3[nH]ncc3c2-c2cc[nH]n2)cc1 [Compound 5-67, 5-[4-(1-Amino-1-methylethyl)phenyl]-4-(pyrazol-3-yl)-1H-indazole trihydrochloride]
6.4	CC(C)(N)c1ccc(-c2ccc3[nH]ncc3c2-c2ccno2)cc1 [Compound 5-68, 5-[4-(1-Amino-1-methylethyl)phenyl]-4-(isoxazol-5-yl)-1H-indazole dihydrochloride]

— patent publication US8232308B2, “Methods for treating a disease in which Rho kinase is involved” (UBE Industries, Ltd., priority 2003, dated 2012)
